Patent US11434232B2, “ATR inhibitor and application thereof” (WUXI BIOCITY BIOPHARMACEUTICS CO., LTD., priority 2018, dated 2022)

Experiments:
[1] = Pharmacokinetic properties in vivo in female Balb/c Nude mice; set-up: species or system mouse; details: for AUC(0-t) / clearance / half-life / C0 / Vd / Cmax: mouse, plasma; for C0: drug concentration at 0 min; for Vd: read-out: Vdss; for F: oral bioavailability, 10 mg/kg oral vs 1 mg/kg IV
Protocol: Experimental method: The purpose of this study was to determine the pharmacokinetic parameters of the compounds and calculate the oral bioavailability in female Balb/c Nude mice.
The project involved 6 female Balb/c Nude mice. 3 mice were administered intravenously at a dose of 1 mg/kg, and plasma samples were collected at 0 h (before administration) and 0.0833, 0.25, 0.5, 1, 2, 4, 6, 8 and 24 h after administration, other 3 mice were given by oral gavage at a dose of 10 mg/kg or 25 mg/kg, and plasma samples were collected at 0 h (before dosing) and 0.5, 1, 2, 3, 4, 6, 8, 24 h after administration. Then LC/MS/MS analysis was performed for the collected samples and data was collected. The collected analysis data was calculated for relevant pharmacokinetic parameters with Phoenix WinNonlin 6.2.1 software.

human ATR kinase = human ATR kinase (Homo sapiens (Human), UniProt Q13535); test: In vitro evaluation of inhibitory activity on human ATR kinase (HTRF, ATR/ATRIP(h), GST-cMyc-p53 substrate); type: biochemical; details: 50 nM GST-cMyc-p53, 30 min room temperature
Protocol: IC50 values were determined to evaluate the inhibitory activity of the tested compounds on human ATR kinase.
ATR/ATRIP(h) was incubated in assay buffer containing 50 nM GST-cMyc-p53 and Mg/ATP (according to concentration required). The reaction was initiated by adding Mg/ATP mixture. After incubating for 30 min at room temperature, a stop solution containing EDTA to was added to terminate the reaction. Finally, detecting buffer containing d^2-labeled anti-GST monoclonal antibody and europium-labeled anti-phospho Ser15 antibody against phosphorylated p^53 were added. Then the plate was read in time-resolved fluorescence mode and homogeneous time resolution was performed.
The fluorescence (HTRF) signal was determined according to the formula HTRF=10000×(Em665 nm/Em620 nm).
IC50 data was analyzed using XLFit version 5.3 (ID Business Solutions). Non-linear regression analysis was used to fit the sigmoidal dose response (variable slope) curve.

tumor cell line LoVo = test: In vitro cell viability test (CellTiter-Glo), LoVo cell proliferation inhibition; type: cell-based; details: Homo sapiens
Protocol: In this experiment, inhibitory effect of the compounds on cell proliferation was investigated by testing influence on cell viability in vitro in tumor cell line LoVo.
CellTiter-Glo Luminescence Cell Viability Test
The following protocols were performed according to instruction of PromegaCellTiter-Glo Luminescence cell viability test Kit (Promega-G7573). • (1) Thawing CellTiter-Glo buffer and allowing it to acclimate to room temperature. • (2) Allowing CellTiter-Glo substrate to acclimate to room temperature. • (3) Adding CellTiter-Glo buffer to a bottle of CellTiter-Glo substrate to dissolve the substrate to prepare CellTiter-Glo working solution. • (4) Vortexing slowly to full dissolution. • (5) Removing the cell culture plate and balancing it to room temperature for 30 min. • (6) Adding 50 μL (equivalent to half volume of cell culture medium in each well) of CellTiter-Glo working solution to each well, wrapping the cell plate with aluminum foil to protect from light. • (7) Shaking the culture plate on an orbital shaker for 2 min to induce cell lysis. • (8) Placing the culture plate at room temperature for 10 min to stabilize the luminescence signal. • (9) Detecting the luminescence signal on SpectraMax i3× of Molecular Devices plate reader. Data Analysis
The following formula was used to calculate the inhibition rate of the test compound (Inhibition rate, IR): IR(%)=(1−(RLU Compound−RLU Blank control)/(RLU Vehicle control−RLU Blank control))*100%.
The inhibition rates of different concentrations of compounds were calculated in Excel, and GraphPad Prism software was used to make the inhibition curve and calculate relevant parameters, including the minimum inhibition rate, the maximum inhibition rate and IC50.

[2] = system: human colorectal cancer LoVo cell subcutaneous xenograft; test: In vivo efficacy in colorectal cancer LoVo CDX model; set-up: species or system mouse; details: 25 mg/kg orally twice a day, day 17 of administration, vs vehicle control group
Text: LoVo is a colorectal adenocarcinoma tumor cell line with MRE11A mutation (MRE11A is a key component of DNA double-strand break repairing ATM signaling pathway), which is sensitive to ATR inhibitor. In this experiment, the colorectal cancer LoVo CDX model was used to verify the inhibitory effect of ATR inhibitor as monotherapy on tumors with defect in ATM signaling pathway.
Human colorectal cancer LoVo cells (ECACC, CatLog: 87060101), in vitro monolayer culture, culture conditions: Ham's F-12 medium with 10% fetal bovine serum, 100 U/mL penicillin, 100 μg/mL streptomycin and 2 mM glutamine, 37° C., 5% CO2 culture. General passage with trypsin-EDTA digestion was performed twice a week. When the cell saturation was 80%-90%, the cells were collected, counted, and inoculated. 0.1 mL (10×10^6) of LoVo cells were subcutaneously inoculated into the right back of each nude mouse. When the mean tumor volume reached 173 mm^3, grouping and administration were initiated.
25.51 mg of WX15 was weighed and dissolved in 0.500 mL of DMSO, which were added with 2.000 mL of propylene glycol and 2.500 mL of deionized water, vortexed for homogeneous mixing, adjusted to PH=6.0, to obtain a clear solution. The preparing processes of Compound WX42, Compound WX45, Compound WX46 were referred to Compound WX15.
Dosage: All test compounds were administered orally at 25 mg/kg twice a day, with an interval of 8 h in a day.
A vernier caliper was used to measure the tumor diameter twice a week. The formula for calculating the tumor volume: V=0.5a×b^2, a and b represent the long and short diameters of the tumor, respectively. Antitumor efficacy of the compound was evaluated by TGI (%) or relative tumor proliferation rate T/C (%). Relative tumor proliferation rate T/C (%)=TRTV/CRTV×100% (TRTV: mean RTV value of treatment group; CRTV: mean RTV value of negative control group). The relative tumor volume (relative tumor volume, RTV) was calculated based on the tumor measurement results and the calculation formula was RTV=Vt/V0, where V0 is the tumor volume measured at grouping administration (i.e. D0), Vt is the tumor volume at a measurement, and data on the same day was used for TRTV and CRTV.
TGI (%) reflects the tumor growth inhibition rate. TGI (%)=[1−(mean tumor volume at the end of administration in a treatment group−mean tumor volume at the beginning of administration in this treatment group)/(mean tumor volume at the end of treatment in the solvent control group−mean tumor volume at the beginning of treatment in the solvent control group)]×100%.

human ATR kinase, sequence (Q13535 whole entry): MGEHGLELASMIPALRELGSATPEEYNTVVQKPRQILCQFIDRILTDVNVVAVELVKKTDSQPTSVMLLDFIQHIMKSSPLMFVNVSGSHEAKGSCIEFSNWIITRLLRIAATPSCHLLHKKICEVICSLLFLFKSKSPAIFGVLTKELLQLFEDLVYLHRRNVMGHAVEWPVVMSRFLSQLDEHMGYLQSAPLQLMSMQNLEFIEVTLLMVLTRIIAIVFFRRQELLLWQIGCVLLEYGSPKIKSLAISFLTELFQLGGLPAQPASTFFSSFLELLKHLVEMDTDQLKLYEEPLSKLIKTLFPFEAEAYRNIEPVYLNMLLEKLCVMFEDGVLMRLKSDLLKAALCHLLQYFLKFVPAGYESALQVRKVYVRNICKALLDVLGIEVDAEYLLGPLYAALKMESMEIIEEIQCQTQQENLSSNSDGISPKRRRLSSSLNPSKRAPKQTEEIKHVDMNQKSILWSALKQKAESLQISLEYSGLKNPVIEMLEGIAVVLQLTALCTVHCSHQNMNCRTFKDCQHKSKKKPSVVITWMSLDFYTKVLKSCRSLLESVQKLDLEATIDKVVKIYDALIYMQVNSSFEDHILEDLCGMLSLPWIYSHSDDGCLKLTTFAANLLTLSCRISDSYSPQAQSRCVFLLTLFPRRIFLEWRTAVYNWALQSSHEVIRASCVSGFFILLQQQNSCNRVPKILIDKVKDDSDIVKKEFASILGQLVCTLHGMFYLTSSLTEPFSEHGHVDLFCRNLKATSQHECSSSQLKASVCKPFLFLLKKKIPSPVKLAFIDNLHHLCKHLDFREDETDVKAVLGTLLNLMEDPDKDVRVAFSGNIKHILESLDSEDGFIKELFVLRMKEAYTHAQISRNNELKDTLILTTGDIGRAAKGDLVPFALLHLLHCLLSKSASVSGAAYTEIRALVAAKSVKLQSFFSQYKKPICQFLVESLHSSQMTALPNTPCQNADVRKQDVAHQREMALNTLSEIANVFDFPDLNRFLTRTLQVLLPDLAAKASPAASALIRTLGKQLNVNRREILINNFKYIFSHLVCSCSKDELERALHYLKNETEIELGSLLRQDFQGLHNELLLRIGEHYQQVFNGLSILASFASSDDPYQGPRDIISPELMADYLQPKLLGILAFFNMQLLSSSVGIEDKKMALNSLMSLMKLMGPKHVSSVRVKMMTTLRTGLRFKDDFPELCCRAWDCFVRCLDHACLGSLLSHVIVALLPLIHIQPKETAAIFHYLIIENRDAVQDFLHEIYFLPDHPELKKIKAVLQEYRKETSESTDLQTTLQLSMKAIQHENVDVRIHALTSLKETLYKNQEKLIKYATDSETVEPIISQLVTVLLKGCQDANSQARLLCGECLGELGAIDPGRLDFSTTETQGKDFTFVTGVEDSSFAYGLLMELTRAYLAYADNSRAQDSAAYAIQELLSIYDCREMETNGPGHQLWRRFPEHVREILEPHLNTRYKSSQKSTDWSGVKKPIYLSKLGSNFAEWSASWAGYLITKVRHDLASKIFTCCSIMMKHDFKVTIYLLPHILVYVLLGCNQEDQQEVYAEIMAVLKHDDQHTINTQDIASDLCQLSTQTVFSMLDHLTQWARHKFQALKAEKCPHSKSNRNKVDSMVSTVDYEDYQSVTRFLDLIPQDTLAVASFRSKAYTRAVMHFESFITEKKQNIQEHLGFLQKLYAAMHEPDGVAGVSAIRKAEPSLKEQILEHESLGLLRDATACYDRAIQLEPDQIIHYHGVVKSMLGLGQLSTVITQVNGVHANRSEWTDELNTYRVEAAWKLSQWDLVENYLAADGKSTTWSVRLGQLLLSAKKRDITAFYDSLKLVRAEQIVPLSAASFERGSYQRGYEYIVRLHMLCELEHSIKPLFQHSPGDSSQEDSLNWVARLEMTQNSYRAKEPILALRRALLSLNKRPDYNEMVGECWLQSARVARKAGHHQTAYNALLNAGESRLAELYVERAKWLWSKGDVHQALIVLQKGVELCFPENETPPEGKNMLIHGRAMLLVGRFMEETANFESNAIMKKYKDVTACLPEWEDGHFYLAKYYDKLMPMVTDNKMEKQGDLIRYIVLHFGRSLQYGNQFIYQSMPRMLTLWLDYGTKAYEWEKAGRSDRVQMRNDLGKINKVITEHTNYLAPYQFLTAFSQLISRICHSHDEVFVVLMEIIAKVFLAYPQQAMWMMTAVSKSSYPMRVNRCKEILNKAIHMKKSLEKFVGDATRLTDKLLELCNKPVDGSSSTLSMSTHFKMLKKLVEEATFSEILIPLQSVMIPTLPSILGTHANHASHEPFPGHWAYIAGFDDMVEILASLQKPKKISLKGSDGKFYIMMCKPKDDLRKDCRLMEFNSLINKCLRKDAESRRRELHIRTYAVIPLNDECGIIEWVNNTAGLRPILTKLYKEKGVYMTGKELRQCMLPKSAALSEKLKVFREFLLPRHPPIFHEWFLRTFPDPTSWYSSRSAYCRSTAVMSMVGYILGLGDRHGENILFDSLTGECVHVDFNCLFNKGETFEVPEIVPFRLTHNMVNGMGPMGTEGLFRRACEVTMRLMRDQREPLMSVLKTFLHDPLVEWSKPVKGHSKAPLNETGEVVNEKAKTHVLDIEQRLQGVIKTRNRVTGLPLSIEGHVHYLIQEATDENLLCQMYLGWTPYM
human ATR kinase, sequence (Q8WXE1 whole entry partner): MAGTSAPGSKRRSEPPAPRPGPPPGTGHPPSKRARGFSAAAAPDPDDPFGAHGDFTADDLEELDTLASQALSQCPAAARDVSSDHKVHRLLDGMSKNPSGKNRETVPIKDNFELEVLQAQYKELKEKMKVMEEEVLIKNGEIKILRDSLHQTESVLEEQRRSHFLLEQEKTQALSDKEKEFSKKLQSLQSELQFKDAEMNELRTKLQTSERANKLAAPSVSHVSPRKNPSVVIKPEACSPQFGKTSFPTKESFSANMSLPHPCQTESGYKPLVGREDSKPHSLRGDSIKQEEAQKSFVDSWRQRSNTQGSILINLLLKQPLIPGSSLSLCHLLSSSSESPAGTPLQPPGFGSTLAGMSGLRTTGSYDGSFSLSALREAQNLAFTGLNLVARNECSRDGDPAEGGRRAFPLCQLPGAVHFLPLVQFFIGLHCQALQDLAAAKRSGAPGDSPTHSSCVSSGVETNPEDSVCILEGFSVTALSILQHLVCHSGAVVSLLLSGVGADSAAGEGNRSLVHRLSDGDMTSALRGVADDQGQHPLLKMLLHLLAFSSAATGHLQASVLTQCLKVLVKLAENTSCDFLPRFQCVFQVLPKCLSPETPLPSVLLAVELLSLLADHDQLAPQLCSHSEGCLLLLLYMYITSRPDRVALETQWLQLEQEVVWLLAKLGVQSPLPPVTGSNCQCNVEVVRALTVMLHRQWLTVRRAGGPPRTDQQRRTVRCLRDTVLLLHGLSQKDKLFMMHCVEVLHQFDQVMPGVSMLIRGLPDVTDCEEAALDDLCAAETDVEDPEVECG

## Cc1nnc(C)n1-c1cc(N2CCOC[C@H]2C)nc(-c2cccc3[nH]ccc23)n1 [WX45]
[1]; 1 mg/kg IV
  AUC(0-t): 0.88 µM·h
  clearance: 48.3 mL/min/kg
  half-life: 0.99 h
  C0: 1.58 µM
  Vd: 2.59 L/kg
[1]; 10 mg/kg oral gavage
  AUC(0-t): 10.9 µM·h
  Cmax: 7.72 µM
  half-life: 1.69 h
[1]
  F: 123.0%
Human ATR kinase
  IC50: 69 nM
Tumor cell line LoVo
  IC50: 750 nM
[2]
  T/C (relative tumor proliferation rate): 32.3%
  TGI (tumor growth inhibition rate): 79.9%

## Cc1nnc(C)n1-c1cc(N2CCOC[C@H]2C)nc(-c2cc(F)cc3[nH]ccc23)n1 [WX46]
[1]; 25 mg/kg oral gavage
  AUC(0-t): 26.2 µM·h
  Cmax: 10.6 µM
  half-life: 0.892 h
Human ATR kinase
  IC50: 31 nM
Tumor cell line LoVo
  IC50: 350 nM
[2]
  T/C (relative tumor proliferation rate): 43.8%
  TGI (tumor growth inhibition rate): 79.9%

## C[C@@H]1COCCN1c1cc(-c2ccnn2C)nc(-c2ccnc3[nH]ccc23)n1 [WX15]
[1]; 1 mg/kg IV
  AUC(0-t): 0.905 µM·h
  clearance: 47 mL/min/kg
  half-life: 0.78 h
  C0: 1.96 µM
  Vd: 2.21 L/kg
[1]; 10 mg/kg oral gavage
  AUC(0-t): 8.75 µM·h
  Cmax: 4.56 µM
  half-life: 1.23 h
[1]
  F: 96.0%
Human ATR kinase
  IC50: 159 nM
Tumor cell line LoVo
  IC50: 410 nM
[2]
  T/C (relative tumor proliferation rate): 46.7%
  TGI (tumor growth inhibition rate): 66.8%

## Cc1cnn(C)c1-c1cc(N2CCOC[C@H]2C)nc(-c2cc(CO)cc3[nH]ccc23)n1 [WX42]
[1]; 1 mg/kg IV
  AUC(0-t): 1.09 µM·h
  clearance: 34.3 mL/min/kg
  half-life: 2.57 h
  C0: 1.96 µM
  Vd: 2.21 L/kg
[1]; 10 mg/kg oral gavage
  AUC(0-t): 15 µM·h
  Cmax: 6.5 µM
  half-life: 2.02 h
[1]
  F: 129.0%
Human ATR kinase
  IC50: 29 nM
Tumor cell line LoVo
  IC50: 510 nM
[2]
  T/C (relative tumor proliferation rate): 27.8%
  TGI (tumor growth inhibition rate): 90.7%
